Results taken from patent US20240197726A1, “NOVEL TETRAHYDROISOQUINOLINE ALKALOID COMPOUND CONTAINING MACROCYCLE” (THE UNIVERSITY OF TOKYO, priority 2021, published 2024).
Where two headings read alike, the source gives them in different places.

Tests used:
Type in all cases: cell-based
LOX-IMVI melanoma cells = experiment: antitumor activity, sulforhodamine B cell growth assay, LOX-IMVI; settings: LOX-IMVI, drug exposure 48 hours, read-out: GI50 value: 50% growth inhibitory concentration
Description: (§1) The THIQ compound containing a macrocyclic structure of the present invention was administered to various cancer cell lines, and the antitumor activity (Go value) was observed. Specifically, verification was performed according to the literature (Yamori, T.; Matsunaga, A.; Sato, S.; Yamazaki, K.; Komi, A.; Ishizu, K. et al. Cancer Res. 1999, 59, 4042) by the following procedure.
(§2) Cells were plated at an appropriate density in a 96-well plate in RPMI 1640 together with 5% fetal bovine serum, and adhered overnight. The cells were exposed to a drug for 48 hours. Then, according to the sulforhodamine B assay described by Skehan et al (Skehan P., Storeng R., Scudiero D., Monks A., McMahon J., Vistica D., Warren J. T., Bokesch H., Kenney S., Boyd M. R. J Natl. Cancer Inst, 1990, 82, 1107-1112), the cell growth rate was measured. The absorbance of the control well (C) and the test well (T) was measured at 525 nm. In addition, the time at which the drug was added was set as time 0, and the absorbance for the test well (T0) was measured. Using these measured values, the cell growth inhibitory effect (% growth=PG) was calculated by the following formula at each concentration of the drug.
(§3) (T<T0): PG=100×[(T−T0)/T]
(§4) The PG values determined above for each cell line were plotted against the concentration (logarithm) on a semi-logarithmic graph, and summarized for each visceral cancer. Concentrations at which the dose-response curve of each cell line crossed the horizontal line of PG=50%, 0%, or −50% were calculated. These concentrations were defined as Log GI50, Log TGI, and Log LC50. Actually, using two data points of the drug concentration before and after crossing each horizontal line, the drug concentration (logarithmic value) at the intersection of the straight line connecting the two points and the horizontal line for each PG was calculated.

[1] = test system: DU-145 prostate cancer cells; experiment: antitumor activity, sulforhodamine B cell growth assay, DU-145; settings: DU-145, drug exposure 48 hours, read-out: GI50 value: 50% growth inhibitory concentration
Description: as §1, §2, §3, §4

[2] = test system: NCI-H23 lung cancer cells; experiment: antitumor activity, sulforhodamine B cell growth assay, NCI-H23; settings: NCI-H23, drug exposure 48 hours, read-out: GI50 value: 50% growth inhibitory concentration
Description: as §1, §2, §3, §4

[3] = test system: HT-29 colorectal cancer cells; experiment: antitumor activity, sulforhodamine B cell growth assay, HT-29; settings: HT-29, drug exposure 48 hours, read-out: GI50 value: 50% growth inhibitory concentration
Description: as §1, §2, §3, §4

[4] = test system: NCI-H522 lung cancer cells; experiment: antitumor activity, sulforhodamine B cell growth assay, NCI-H522; settings: NCI-H522, drug exposure 48 hours, read-out: GI50 value: 50% growth inhibitory concentration
Description: as §1, §2, §3, §4

[5] = test system: SF-268 central nervous system cancer cells; experiment: antitumor activity, sulforhodamine B cell growth assay, SF-268; settings: SF-268, drug exposure 48 hours, read-out: GI50 value: 50% growth inhibitory concentration
Description: as §1, §2, §3, §4

[6] = test system: SF-295 central nervous system cancer cells; experiment: antitumor activity, sulforhodamine B cell growth assay, SF-295; settings: SF-295, drug exposure 48 hours, read-out: GI50 value: 50% growth inhibitory concentration
Description: as §1, §2, §3, §4

[7] = test system: HCC2998 colorectal cancer cells; experiment: antitumor activity, sulforhodamine B cell growth assay, HCC2998; settings: HCC2998, drug exposure 48 hours, read-out: GI50 value: 50% growth inhibitory concentration
Description: as §1, §2, §3, §4

[8] = test system: various cancer cell lines; experiment: Verification of antitumor activity, whole panel of cancer cell lines; settings: in words, compared with Cyanosafracin B
Description: as §1, §2, §3, §4

[9] = test system: MDA-MB-231 breast cancer cells; experiment: antitumor activity, sulforhodamine B cell growth assay, MDA-MB-231; settings: MDA-MB-231, drug exposure 48 hours, read-out: GI50 value: 50% growth inhibitory concentration
Description: as §1, §2, §3, §4

[10] = test system: NCI-H460 lung cancer cells; experiment: antitumor activity, sulforhodamine B cell growth assay, NCI-H460; settings: NCI-H460, drug exposure 48 hours, read-out: GI50 value: 50% growth inhibitory concentration
Description: as §1, §2, §3, §4

[11] = test system: HBC-4 breast cancer cells; experiment: antitumor activity, sulforhodamine B cell growth assay, HBC-4; settings: HBC-4, drug exposure 48 hours, read-out: GI50 value: 50% growth inhibitory concentration
Description: as §1, §2, §3, §4

[12] = test system: HBC-5 breast cancer cells; experiment: antitumor activity, sulforhodamine B cell growth assay, HBC-5; settings: HBC-5, drug exposure 48 hours, read-out: GI50 value: 50% growth inhibitory concentration
Description: as §1, §2, §3, §4

[13] = test system: U251 central nervous system cancer cells; experiment: antitumor activity, sulforhodamine B cell growth assay, U251; settings: U251, drug exposure 48 hours, read-out: GI50 value: 50% growth inhibitory concentration
Description: as §1, §2, §3, §4

ACHN kidney cancer cells = experiment: antitumor activity, sulforhodamine B cell growth assay, ACHN; settings: ACHN, drug exposure 48 hours, read-out: GI50 value: 50% growth inhibitory concentration
Description: as §1, §2, §3, §4

[14] = test system: RXF-631L kidney cancer cells; experiment: antitumor activity, sulforhodamine B cell growth assay, RXF-631L; settings: RXF-631L, drug exposure 48 hours; read-out: GI50 value: 50% growth inhibitory concentration
Description: as §1, §2, §3, §4

[15] = test system: SNB-78 central nervous system cancer cells; experiment: antitumor activity, sulforhodamine B cell growth assay, SNB-78; settings: SNB-78, drug exposure 48 hours, read-out: GI50 value: 50% growth inhibitory concentration
Description: as §1, §2, §3, §4

[16] = test system: HCT-15 colorectal cancer cells; experiment: antitumor activity, sulforhodamine B cell growth assay, HCT-15; settings: HCT-15, drug exposure 48 hours, read-out: GI50 value: 50% growth inhibitory concentration
Description: as §1, §2, §3, §4

SK-OV-3 cancer cells = experiment: antitumor activity, sulforhodamine B cell growth assay, SK-OV-3; settings: SK-OV-3, drug exposure 48 hours, read-out: GI50 value: 50% growth inhibitory concentration
Description: as §1, §2, §3, §4

OVCAR-4 cancer cells = experiment: antitumor activity, sulforhodamine B cell growth assay, OVCAR-4; settings: OVCAR-4, drug exposure 48 hours, read-out: GI50 value: 50% growth inhibitory concentration
Description: as §1, §2, §3, §4

[17] = test system: OVCAR-5 cervical cancer cells; experiment: antitumor activity, sulforhodamine B cell growth assay, OVCAR-5; settings: OVCAR-5, drug exposure 48 hours, read-out: GI50 value: 50% growth inhibitory concentration
Description: as §1, §2, §3, §4

DMS273 lung cancer cells = experiment: antitumor activity, sulforhodamine B cell growth assay, DMS273; settings: DMS273, drug exposure 48 hours, read-out: GI50 value: 50% growth inhibitory concentration
Description: as §1, §2, §3, §4

SMILES	GI50 (LOX-IMVI melanoma cells)	GI50 [1]	GI50 [2]	GI50 [3]	GI50 [4]	GI50 [5]	GI50 [6]	GI50 [7]	antitumor activity [8]	GI50 [9]	GI50 [10]	GI50 [11]	GI50 [12]	GI50 [13]	GI50 (ACHN kidney cancer cells)	GI50 [14]	GI50 [15]	GI50 [16]	GI50 (SK-OV-3 cancer cells)	GI50 (OVCAR-4 cancer cells)	other results
COc1c(C)cc2c(c1O)C1C3Cc4c5c(C)c6c(c4C(CNC(=O)C(C)NCC=CCO5)N3C(C#N)C(C2)N1C)OCO6 (stereo not drawn) [Compound 42]	< 0.01 µM	0.058 µM	0.031 µM	0.013 µM	< 0.01 µM	0.027 µM	0.038 µM	0.018 µM	better antitumor activity than Cyanosafracin B	< 0.01 µM	0.022 µM	< 0.01 µM	0.017 µM	0.013 µM	0.042 µM	0.034 µM	0.011 µM	0.047 µM	0.049 µM	0.055 µM	GI50 [17]: 0.047 µM; GI50 (DMS273 lung cancer cells): 0.016 µM
COc1c(C)cc2c(c1O)C1C3Cc4c5c(C)c6c(c4C(CNC(=O)C(C)NC(=O)OCC4C=C(CO5)CC5C(=O)N(c7ccccc7)C(=O)C45)N3C(C#N)C(C2)N1C)OCO6 (stereo not drawn) [Compound 18]	0.027 µM	0.33 µM	0.11 µM	0.072 µM	0.02 µM	0.074 µM	0.3 µM	0.095 µM	better antitumor activity than Cyanosafracin B	0.041 µM	0.26 µM	0.03 µM	0.038 µM	0.05 µM	0.24 µM	0.31 µM	0.04 µM	0.63 µM	0.41 µM	0.35 µM	GI50 [17]: 0.28 µM; GI50 (DMS273 lung cancer cells): 0.1 µM
COc1c(C)cc2c(c1O)[C@@H]1[C@@H]3Cc4c5c(C)c6c(c4C(CNC(=O)[C@H](C)NC(=O)OCC4C=C(CO5)Cn5c(=O)n(-c7ccccc7)c(=O)n54)N3[C@@H](C#N)[C@H](C2)N1C)OCO6 [Compound 16]									better antitumor activity than Cyanosafracin B							0.035 µM					GI50 (LOX-IMVI melanoma cells; Homo sapiens): 0.0033 µM; GI50 ([1]; Homo sapiens): 0.041 µM; GI50 ([2]; Homo sapiens): 0.02 µM; GI50 ([3]; Homo sapiens): 0.0073 µM; GI50 ([4]; Homo sapiens): 0.0024 µM; GI50 ([5]; Homo sapiens): 0.013 µM; GI50 ([6]; Homo sapiens): 0.029 µM; GI50 ([7]; Homo sapiens, HCC 2998): 0.017 µM; GI50 ([9]; Homo sapiens): 0.0067 µM; GI50 ([10]; Homo sapiens): 0.036 µM; GI50 ([11]; HBC4): 0.0052 µM; GI50 ([12]; HBC5): 0.0069 µM; GI50 ([13]; Homo sapiens, U-251): 0.0058 µM; GI50 (ACHN kidney cancer cells; Homo sapiens): 0.025 µM; GI50 ([15]; Homo sapiens): 0.0075 µM; GI50 ([16]; Homo sapiens): 0.043 µM; GI50 (SK-OV-3 cancer cells; Homo sapiens): 0.034 µM; GI50 (OVCAR-4 cancer cells; Homo sapiens): 0.036 µM; GI50 ([17]; Homo sapiens): 0.031 µM; GI50 (DMS273 lung cancer cells; Homo sapiens, DMS-273): 0.015 µM
